Results as given in US20100080790A1, “STERILIZATION USING HIGH-PRESSURE CARBON DIOXIDE” (University of South Carolina, priority 2005, published 2010).
Several values for one entry are separate records, joined by “and”; a condition that tells them apart may be missing. Identical values can stand only once. Entries after “also recorded” stand apart in the source; their conditions may differ. Like-named read-outs stand apart in the source and are kept apart here.

Assays:
[1] = test system: B. pumilus ATCC 27142 spores; assay: Log reduction of B. pumilus spores on spore strips treated with high-pressure/supercritical CO2 with or without additives, colony counting; type: cell-based
[2] = test system: B. atrophaeus ATCC 9372 spores
[3] = test system: B. anthracis ΔSterne-1 spores
[4] = test system: Vegetative G. stearothermophilus cells; details: 1.5-hour exposure, 28 bar, 25 °C; cited from earlier work
Lactobacillus plantarum = details: high-pressure CO2 treatment, suspension in distilled water at pH 6.0; cited from earlier work
[5] = test system: G. stearothermophilus spores; details: cited from earlier work
[6] = additive with CO2, conditions of Table 2
[7] = additive with CO2, 40 °C, 276 bar, 4 hr

Structure (SMILES): O [BULK WATER, water]
- effectiveness of additive (in words) [1]: neither bulk water, nor ethanol, nor isopropanol were effective additives
- effectiveness of additive in deactivating B. pumilus spores (in words) [1]: Neither bulk water, 5 μL of 70% ethanol, nor 5 μL of 70% isopropanol resulted in the required log reduction

Structure (SMILES): CC(C)O [70% ISOPROPANOL, isopropanol]
- effectiveness of additive in deactivating B. pumilus spores (in words) [1, 6]: Neither bulk water, 5 μL of 70% ethanol, nor 5 μL of 70% isopropanol resulted in the required log reduction
- LOG REDUCTION [1, 7]: 0.17 ± 0.06 log
- effectiveness of additive (in words) ([1]; dense-phase CO2, at 40 °C): neither bulk water, nor ethanol, nor isopropanol were effective additives

Structure (SMILES): OO [30% H2O2, hydrogen peroxide]
- LOG REDUCTION [1]: 4.47 ± 0.64 log and 4.60 ± 0.02 log and 6.28 ± 0.46 log and 4.45 ± 0.31 log
- deactivation in replicate experiments (in words) [1]: complete deactivation in two of the three replicate experiments
- effectiveness of additive in deactivating B. pumilus spores (in words) [1]: highly effective; also recorded: the most effective additive among the additives examined
- Log reduction [2]: 6.25
- Log reduction [3]: 5.74

Structure (SMILES): CCO [70% ETHANOL, ethanol]
- effectiveness of additive in deactivating B. pumilus spores (in words) [1, 6]: Neither bulk water, 5 μL of 70% ethanol, nor 5 μL of 70% isopropanol resulted in the required log reduction
- LOG REDUCTION [1, 7]: 0.27 ± 0.16 log
- effectiveness of additive (in words) ([1]; dense-phase CO2, at 40 °C): neither bulk water, nor ethanol, nor isopropanol were effective additives

Structure (SMILES): O=C=O [CO2, carbon dioxide]
- log reduction [1]: 3.90 log
- LOG REDUCTION ([1]; wetted spore strips with CO2, 4 hr, 103 bar, 60 °C): 1.91 ± 0.23 log
- LOG REDUCTION ([1]; wetted spore strips with CO2, 4 hr, 276 bar, 50 °C): 0.58 ± 0.04 log
- LOG REDUCTION ([1]; wetted spore strips with CO2, 4 hr, 276 bar, 60 °C): 3.06 ± 0.17 log
- LOG REDUCTION ([1]; wetted spore strips with CO2, 4 hr, 276 bar, 80 °C): 3.02 ± 0.07 log
- log reduction of vegetative cells [4]: more than 6 log
- log reduction (Lactobacillus plantarum): more than 7 log
- spores remained viable [5]: 80%
